Holding throughout (type): cell-based
Assay [1] concerns the target T1, hPPARδ (Homo sapiens, UniProt Q03181).
T1 construct: fragments of DNA amplified by PCR corresponding to the DEF domains of the human PPARα, PPARγ PPARδ nuclear receptors; expressed in transfected cells; host or cells: COS-7 (monkey kidney fibroblast line)
T1 sequence (Q03181 211-439 limits assumed): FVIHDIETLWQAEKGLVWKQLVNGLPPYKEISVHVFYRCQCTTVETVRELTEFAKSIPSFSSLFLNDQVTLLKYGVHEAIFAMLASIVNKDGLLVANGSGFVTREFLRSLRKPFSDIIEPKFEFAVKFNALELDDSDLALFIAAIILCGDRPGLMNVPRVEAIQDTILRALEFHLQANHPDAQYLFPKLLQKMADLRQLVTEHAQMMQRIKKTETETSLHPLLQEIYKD
Nature of the assay: Gal4-hPPARδ chimera transactivation in COS-7 cells (luciferase). To be noted: induction factor standardised to an internal reference, read-out: % hGal4-PPAR transactivation (10 μM) delta. On the procedure: (§1) The PPAR activation was evaluated in vitro on a monkey kidney fibroblast line (COS-7) by measuring the transcriptional activity of chimeras constituted of the DNA binding domain of the Gal4 transcription factor of yeast and of the binding domain to the ligand of the different PPARs. The compounds were tested at doses between 0.01 and 100 μM on Gal4-PPARα, γ, δ chimeras. The induction factor (ratio between the luminescence induced by the compound and the luminescence induced by the control) was measured for each condition: the higher this factor, the more the compound has PPAR-activating properties.
(§2) The COS-7 cells from ATCC were cultivated in a DMEM medium supplemented with 10% (vol/vol) of foetal calf serum, 100 U/ml penicillin (Gibco, Paisley, UK) and 2 mM L-Glutamine (Gibco, Paisley, UK). The cells were incubated at 37° C. in a humid atmosphere containing 5% CO2.
(§3) The Gal4(RE)_TkpGL3, pGal4-hPPARα, pGal4-hPPARγ, pGal4-hPPARδ and pGal4-φ plasmids have been described in the literature (Raspe, Madsen et al. 1999). The pGal4-hPPARα, pGal4-hPPARγ and pGal4-hPPARδ constructs were obtained by cloning in the pGal4-φ vector of fragments of DNA amplified by PCR corresponding to the DEF domains of the human PPARα, PPARγ PPARδ nuclear receptors.
(§4) COS-7 cells were plated in 96 wells plates (5×10^4 cells/well) and transfected, in the presence of 10% foetal calf serum and 150 ng DNA per well, with a pGal4-PPAR/Gal4(RE)_TkpGL3 ratio of 1/10. The cells were then incubated for 24 hours with the compounds to be tested, without serum. At the end of the experiment, the cells were lysed and the luciferase activities were determined by means of Steady Glow Luciferase (Promega) according to the supplier's recommendations.
(§5) The inventive compounds were tested at 10 μM on the 3 PPAR isoforms. The results obtained are detailed in table (1). The transactivation measured is expressed as a response ratio versus an internal reference for each of the isoforms.
(§6) The compounds were tested at 10 μM on the Gal4-PPARα, γ, δ chimeras. The induction factor, i.e. the ratio between the luminescence induced by the compound and the luminescence induced by the control, was measured for each condition. It was then standardised in comparison to an internal reference and the results were then expressed in percentages : the higher the activation percentage, the more the compound has PPAR-activating properties.

Assay [2] deals with T2, hPPARα (Homo sapiens, UniProt Q07869).
T2 construct: fragments of DNA amplified by PCR corresponding to the DEF domains of the human PPARα, PPARγ PPARδ nuclear receptors; expressed in transfected cells; host or cells: COS-7 (monkey kidney fibroblast line)
T2 sequence (Q07869 239-466 limits assumed): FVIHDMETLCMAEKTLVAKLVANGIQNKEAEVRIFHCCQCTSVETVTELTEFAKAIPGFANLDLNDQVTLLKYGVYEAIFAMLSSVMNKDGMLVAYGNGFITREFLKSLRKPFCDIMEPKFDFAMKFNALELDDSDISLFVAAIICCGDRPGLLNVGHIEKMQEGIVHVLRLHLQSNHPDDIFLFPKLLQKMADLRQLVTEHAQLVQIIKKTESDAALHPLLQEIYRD
Nature of the assay: Gal4-hPPARα chimera transactivation in COS-7 cells (luciferase). As to conditions: induction factor standardised to an internal reference, read-out: % hGal4-PPAR transactivation (10 μM) alpha. On the procedure:
as §1, §2, §3, §4, §5, §6

Assay [3] addresses T3, hPPARγ (Homo sapiens, UniProt P37231).
T3 construct: fragments of DNA amplified by PCR corresponding to the DEF domains of the human PPARα, PPARγ PPARδ nuclear receptors; expressed in transfected cells; host or cells: COS-7 (monkey kidney fibroblast line)
T3 sequence (P37231 238-503 limits assumed): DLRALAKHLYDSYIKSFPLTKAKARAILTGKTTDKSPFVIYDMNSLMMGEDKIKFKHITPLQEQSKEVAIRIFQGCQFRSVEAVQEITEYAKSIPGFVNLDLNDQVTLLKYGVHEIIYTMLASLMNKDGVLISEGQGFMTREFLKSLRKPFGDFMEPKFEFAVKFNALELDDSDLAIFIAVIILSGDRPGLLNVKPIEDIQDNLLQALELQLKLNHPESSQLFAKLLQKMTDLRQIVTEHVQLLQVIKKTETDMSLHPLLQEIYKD
Nature of the assay: Gal4-hPPARγ chimera transactivation in COS-7 cells (luciferase). As to conditions: induction factor standardised to an internal reference, read-out: % hGal4-PPAR transactivation (10 μM) gamma. How it is done: as §1, §2, §3, §4, §5, §6

For `CCN(CCCC(C)(C)C(=O)O)c1ccc(CC(=O)NC(CC(C)C)c2ccccc2N2CCCCC2)cc1` (stereo not drawn) [Compound 46, 5-{N-ethyl-N-[4-[1-(3-methyl-1-(2-(1-piperidinyl)phenyl)butyl)aminocarbonylmethyl]phenyl]amino}-2,2-dimethylpentanoic acid], the activation at 10 µM was less than 10% in assay [1], 58% in assay [2] and 12% in assay [3].
As to `CC(C)CC(NC(=O)Cc1ccc(OCCCCOc2ccc(OC(C)(C)C(=O)O)cc2)cc1)c1ccccc1N1CCCCC1` (stereo not drawn) [Compound 40, 2-{4-{4-[4-[1-(3-methyl-1-(2-(1-piperidinyl)phenyl)butyl)aminocarbonylmethyl]phenoxy]butoxy}phenoxy}-2-methylpropanoic acid], the activation at 10 µM in assay [1] was less than 10%; in assay [2], 20%; in assay [3], 55%.
The corresponding values for `CCCCC(NC(=O)Cc1ccc(OCCCC(Cl)(Cl)C(=O)O)cc1)c1ccccc1N1CCCCC1` (stereo not drawn) [Compound 47, 5-[4-[1-(1-(2-(1-piperidinyl)phenyl)pentyl)aminocarbonylmethyl]phenoxy]-2,2-dichloropentanoic acid] are less than 10%, 42% and less than 10%.
Consider `CCCCC(NC(=O)Cc1ccc(OC(C)(C)C(=O)O)c(OC)c1)c1ccccc1N1CCCCC1` (stereo not drawn) [Compound 73, 2-[2-methoxy-4-[1-(1-(2-(1-piperidinyl)phenyl)pentyl)aminocarbonylmethyl]phenoxy]-2-methylpropanoic acid], for which the activation at 10 µM in assay [1] is less than 10%; in assay [2], less than 10%; in assay [3], 42%.
For the molecule `CCCCC(NC(=O)Cc1ccc(OC(C)(C)C(=O)NS(C)(=O)=O)cc1)c1ccccc1OC` (stereo not drawn) [Compound 67, N-[methylsulfonyl]-2-[4-[1-(1-(2-(methoxy)phenyl)pentyl)aminocarbonylmethyl]phenoxy]-2-methylpropanamide], the activation at 10 µM in assay [1], in assay [2] and in assay [3] was less than 10% in each case.
Regarding `Cc1cc(CC(=O)NC(CC(C)C)c2ccccc2N2CCCCC2)cc(C)c1OC(C)(C)C(=O)O` (stereo not drawn) [Compound 11, 2-[2,6-dimethyl-4-[1-(3-methyl-1-(2-(1-piperidinyl)phenyl)butyl)aminocarbonylmethyl]phenoxy]-2-methylpropanoic acid], the activation at 10 µM in assay [1] is less than 10%; in assay [2] it was less than 10%; in assay [3], 47%.
Take `CCCCCCC(NC(=O)Cc1ccc(OC(C)(C)C(=O)O)cc1)c1ccccc1N1CCCCC1` (stereo not drawn) [Compound 5, 2-[4-[1-(1-(2-(1-piperidinyl)phenyl)heptyl)aminocarbonylmethyl]phenoxy]-2-methylpropanoic acid]: the activation at 10 µM in assay [1] is less than 10%; in assay [2], 31%; in assay [3] it was 82%.
As for `COc1ccc(CC(NC(=O)Cc2ccc(OC(C)(C)C(=O)O)cc2)c2ccccc2N2CCCCC2)cc1` (stereo not drawn) [Compound 48, 2-[4-[1-(2-(4-methoxyphenyl)-1-(2-(1-piperidinyl)phenyl)ethyl)aminocarbonylmethyl]phenoxy]-2-methylpropanoic acid], the figures for the activation at 10 µM in assay [1], in assay [2] and in assay [3] were less than 10%, less than 10% and 17%, respectively.
Consider `CC(NC(=O)Cc1ccc(OC(C)(C)C(=O)O)cc1)c1ccccc1N1CCCCC1` (stereo not drawn) [Compound 2, 2-[4-[1-(1-(2-(1-piperidinyl)phenyl)ethyl)aminocarbonylmethyl]phenoxy]-2-methylpropanoic acid], for which the activation at 10 µM in assay [1] is less than 10%; in assay [2], less than 10%; in assay [3], 27%.
Turning to `CCCC(NC(=O)Cc1ccc(OC(C)(C)C(=O)NS(C)(=O)=O)cc1)c1ccccc1N1CCCCC1` (stereo not drawn) [Compound 66, N-[methylsulfonyl]-2-[4-[1-(1-(2-(1-piperidinyl)phenyl)butyl)aminocarbonylmethyl]phenoxy]-2-methylpropanamide], the results for the activation at 10 µM in assay [1], in assay [2] and in assay [3] were less than 10%, 40% and less than 10%, respectively.
Turning to `CCCCC(NC(=O)Cc1ccc(OCc2nnn[nH]2)cc1)c1ccccc1N1CCCCC1` (stereo not drawn) [Compound 70, 2-(4-((1H-tetrazol-5-yl)methoxy)phenyl)-N-[1-(1-(2-(1-piperidinyl)phenyl)pentyl)]acetamide], the figures for the activation at 10 µM in assay [1], in assay [2] and in assay [3] were less than 10%, less than 10% and 13%, respectively.
As for `CCCCC(NC(=O)Cc1ccc(OC(C)(C)C(=O)O)cc1)c1ccccc1N1C[C@H](C)C[C@H](C)C1` (stereo partly drawn) [Compound 43, 2-[4-[1-(1-(2-((3S,5R)-3,5-dimethylpiperidine-1-yl)phenyl)pentyl)aminocarbonylmethyl]phenoxy]-2-methylpropanoic acid], the activation at 10 µM was less than 10% in assay [1], 27% in assay [2] and 18% in assay [3].
Turning to `CCCCC(NC(=O)Cc1ccc(OC(C)(C)C(=O)O)cc1)c1ccc(-n2ccc3ccccc32)cc1N1CCCCC1` (stereo not drawn) [Compound 38, 2-[4-[1-(1-(2-(1-piperidinyl)-4-(1H-indolyl)phenyl)pentyl)aminocarbonylmethyl]phenoxy]-2-methylpropanoic acid], the values for the activation at 10 µM in assay [1], in assay [2] and in assay [3] were 18%, 13% and less than 10%, respectively.
`CCCCC(NC(=O)Cc1ccc(OCC(C)(C)C(=O)O)cc1)c1ccccc1N1CCCCC1` (stereo not drawn) [Compound 42, 3-[4-[1-(1-(2-(1-piperidinyl)phenyl)pentyl)aminocarbonylmethyl]phenoxy]-2,2-dimethylpropanoic acid]: the results for the activation at 10 µM in assay [1], in assay [2] and in assay [3] were less than 10%, 32% and less than 10%, respectively.
Turning to `CCCCC(NC(=O)Cc1ccc(OC(C)(C)C(=O)O)cc1)c1ccc(CCc2ccccc2)cc1N1CCCCC1` (stereo not drawn) [Compound 50, 2-[4-[1-(1-(2-(1-piperidinyl)-4-(phenethyl)phenyl)pentyl)aminocarbonylmethyl]phenoxy]-2-methylpropanoic acid], the activation at 10 µM in assay [1] is 11%; in assay [2], less than 10%; in assay [3], less than 10%.
Turning to `CC(NC(=O)Cc1ccc(OC(C)(C)C(=O)O)cc1)c1ccccc1N1CCCCCC1` (stereo not drawn) [Compound 15, 2-[4-[1-(1-(2-(1-hexamethyleneimino)phenyl)ethyl)aminocarbonylmethyl]phenoxy]-2-methylpropanoic acid], the activation at 10 µM is less than 10% in assay [1], less than 10% in assay [2] and 42% in assay [3].
For `CCCCC(NC(=O)Cc1ccc(OC(C)(C)C(=O)O)cc1)c1ccccc1OCC(C)C` (stereo not drawn) [Compound 68, 2-[4-[1-(1-(2-(isobutyloxy)phenyl)pentyl)aminocarbonylmethyl]phenoxy]-2-methylpropanoic acid], the activation at 10 µM in assay [1] is less than 10%; in assay [2] it was less than 10%; in assay [3], 37%.

The values above are taken from patent publication US20060079696A1, “Substituted compounds derived from N-(benzyl)phenylacetamide, preparation and uses” (GENFIT, priority 2004, published 2006).
